Assay results: US8906902B2, “Antibacterial compounds” (Biota Europe Ltd., priority 2012, dated 2014)
Values after ≈ are worked out from the molar mass of the structure shown. Values belong to the compound of their own block, whether it stands above or below them.

Experiments:
Microsomal stability = assay type: in vitro ADME; conditions: pH 7.4; mouse liver microsomes; major metabolite the parent alcohol
Description: In a 96 well polypropylene plate, 10 μM compound is prepared in 100 mM KPO4 buffer pH 7.4, 5 mM MgCl2, 25 μg/ml Alamethicin, 1 mg/ml (protein) liver microsomes (mouse) and a final DMSO concentration of 0.1% in 100 μl in duplicate. The plate is pre-incubated at 37° C. for 10 minutes after which reactions are initiated by the addition of NADPH and UDPGA to a final concentration of 1 mM and 5 mM respectively. Reactions are incubated at 37° C. and terminated by the addition of 100 μl DMSO at 0, 10, 30 and 60 minutes. Samples of 100 μl are withdrawn and added to 50 μl ice cold methanol and mixed on an orbital shaker for 10 minutes to precipitate the proteins. The samples are then centrifuged at 4000 rpm and 10° C. for 30 minutes and supernatants are analysed by LCMS. The T1/2 and clearance are determined by linear regression from the peak areas.

S. pneumoniae ATCC6301 = test: Mouse survival model (lung infection); assay type: in vivo; conditions: CD-1 mice
Description: Anaesthetised female CD-1 mice (18-22 g) were inoculated intranasally with approximately 10^6 cfus of S. pneumoniae ATCC6301 prepared from a fresh overnight culture by placing 50 μl of inoculum on the nares and allowing the mice to inhale. Compounds are administered as indicated at 24, 48 and 72 hours post inoculation and the mice monitored for survival for seven or nine days after infection. […] Similarly, when Compound 17 was dosed IV at 30 mg/kg 90% of mice survived at day seven.

Thermodynamic solubility = assay type: physicochemical; conditions: aqueous buffer, thermodynamic from solid; pH 7.4, HEPES buffer, 24 hours shaking at room temperature
Description: In a 1.5 mL eppendorf tube, approximately 2 mg of compound is resuspended in a volume of HEPES buffer pH 7.4 to achieve a 5 mg/mL suspension. The tubes are placed on an orbital shaker at room temperature and following shaking for 24 hours the tubes are spun at 1400 rpm in a bench top centrifuge to pellet the undissolved compound. Duplicate 150 μL aliquots of the supernatant are then transferred into two ultracentrifuge tubes and spun at 357440 g for 4 hours at 20° C. 50 μL of the supernatant from each tube is then diluted with 100 μL of methanol and analysed by HPLC or LCMS to determine the concentration of compound in solution by comparing to a standard curve. The thermodynamic solubility of representative Compounds 19, 123, 134 and 153 were tested and determined to be highly soluble, at ≧2 mg/mL, at pH 7.4.

[1] = Pharmacokinetic profile, rat assay (IV); assay type: in vivo; conditions: plasma
Description: The pharmacokinetic profiles of compounds are determined by measuring the compound concentration in plasma by LC/MS/MS following a single intravenous or peroral administration of the compounds at a dose of 1 or 3 mg/kg individually or in a cassette of up to 5 compounds. The concentrations are described as the mean plasma concentrations at each time point from three animals. Intravenous dose formulation is administered as a single bolus dose through the tail vein. Oral dose formulation is administered to animals by an oral gavage needle. In both cases the dose volume is 5.0 mL/kg. Blood is collected from rats using a jugular vein catheter and from anesthetized mice through a capillary guided into the retro-orbital plexus. The collected blood is then centrifuged to obtain plasma and the compounds extracted into methanol prior to determining the compound concentration by LC/MS/MS.
The pharmacokinetic profiles of selected compounds of the invention were compared directly with their primary alcohol analogues, Compounds A and B below, in the rat assay (IV).

S. aureus (ATCC 29213) = test: Antibacterial activity MIC, S. aureus; assay type: cell-based; conditions: Staphylococcus aureus, ATCC29213
S. pyogenes (ATCC 51339) = test: Antibacterial activity MIC, S. pyogenes; assay type: cell-based; conditions: Streptococcus pyogenes, ATCC51339
[2] = tested on: H. influenzae (ATCC 49247); test: Antibacterial activity MIC, H. influenzae; assay type: cell-based; conditions: Haemophilus influenzae, ATCC49247

Structure (SMILES): CCNC(=O)Nc1nc2cc(-c3cnc([C@H](C)OC(=O)CCC(=O)O)nc3)cc(-c3ccccn3)c2s1 [Compound 133, 4-[(1S)-1-[5-[2-(ethylcarbamoylamino)-7-(2-pyridyl)-1,3-benzothiazol-5-yl]pyrimidin-2-yl]ethoxy]-4-oxo-butanoic acid]
half-life at 10 μM (Microsomal stability): < 0.333 h

Structure (SMILES): CC(=O)NC[C@H]1CN(c2ccc(N3CCOCC3)c(F)c2)C(=O)O1 [Linezolid, reference compound]
survival of mice (in words) (S. pneumoniae ATCC6301; dosed with 10 mg/kg): dead by day six

Structure (SMILES): CCNC(=O)Nc1nc2cc(-c3cnc(C(C)O)nc3)cc(-c3ccccn3)c2s1 (stereo not shown) [Compound 17, 1-ethyl-3-[5-[2-(1-hydroxyethyl)pyrimidin-5-yl]-7-(2-pyridyl)-1,3-benzothiazol-2-yl]urea]
AUC ([1]; dose 3 mg/kg): 4000 ng·h/mL
clearance ([1]; dose 3 mg/kg): 12 mL/min/kg
half-life ([1]; dose 3 mg/kg): 1.78 h
mice survived (S. pneumoniae ATCC6301; dosed IV at 30 mg/kg, at day seven): 90%

Structure (SMILES): CCNC(=O)Nc1nc2cc(-c3cnc(C(C)(C)O)nc3)cc(-c3ccccn3)c2s1 [Compound 1, 1-ethyl-3-[5-[2-(1-hydroxy-1-methyl-ethyl)pyrimidin-5-yl]-7-(2-pyridyl)-1,3-benzothiazol-2-yl]urea]
AUC ([1]; dose 1 mg/kg): 3100 ng·h/mL
clearance ([1]; dose 1 mg/kg): 4.3 mL/min/kg
half-life ([1]; dose 1 mg/kg): 3.38 h
mice surviving (S. pneumoniae ATCC6301; dosed IV at 10 mg/kg, at seven or nine days): 80%

Structure (SMILES): CCNC(=O)Nc1nc2cc(-c3cnc(C(C)(C)O)nc3)cc(-c3nccc(N4CCN(CC)CC4)n3)c2s1 [Compound 79, 1-ethyl-3-[7-[4-(4-ethylpiperazin-1-yl)pyrimidin-2-yl]-5-[2-(1-hydroxy-1-methyl-ethyl)pyrimidin-5-yl]-1,3-benzothiazol-2-yl]urea]
MIC (S. aureus (ATCC 29213)): 2 µg/mL (≈ 3.65 µM)
MIC (S. pyogenes (ATCC 51339)): 2 µg/mL (≈ 3.65 µM)

Structure (SMILES): CCNC(=O)Nc1nc2cc(-c3cnc(N4CCC(C)(C(=O)O)CC4)nc3)cc(-c3ccc(C(C)(C)O)cn3)c2s1 [Compound 99, 1-[5-[2-(ethylcarbamoylamino)-7-[5-(1-hydroxy-1-methyl-ethyl)-2-pyridyl]-1,3-benzothiazol-5-yl]pyrimidin-2-yl]-4-methyl-piperidine-4-carboxylic acid]
MIC (S. aureus (ATCC 29213)): 2 µg/mL (≈ 3.47 µM)
MIC (S. pyogenes (ATCC 51339)): ≤ 1 µg/mL
MIC [2]: ≤ 2 µg/mL

Structure (SMILES): CCNC(=O)Nc1nc2cc(-c3cnc(C4(OC(=O)CCC(=O)O)COC4)nc3)cc(-c3ccccn3)c2s1 [Compound 123, 4-[3-[5-[2-(ethylcarbamoylamino)-7-(2-pyridyl)-1,3-benzothiazol-5-yl]pyrimidin-2-yl]oxetan-3-yl]oxy-4-oxo-butanoic acid]
solubility thermodynamic at 24 h (Thermodynamic solubility): ≥ 2000 µg/mL
half-life at 10 μM (Microsomal stability): < 0.333 h

Results, then the compound that gave them:

solubility thermodynamic at 24 h (Thermodynamic solubility): ≥ 2000 µg/mL
half-life at 10 μM (Microsomal stability): < 0.333 h
Structure (SMILES): CCNC(=O)Nc1nc2cc(-c3cnc([C@@H](C)OC(=O)CCC(=O)O)nc3)cc(-c3ccccn3)c2s1 [Compound 134, 4-[(1R)-1-[5-[2-(ethylcarbamoylamino)-7-(2-pyridyl)-1,3-benzothiazol-5-yl]pyrimidin-2-yl]ethoxy]-4-oxo-butanoic acid]

AUC ([1]; dose 1 mg/kg): 1130 ng·h/mL
clearance ([1]; dose 1 mg/kg): 13 mL/min/kg
half-life ([1]; dose 1 mg/kg): 2.63 h
Structure (SMILES): CCNC(=O)Nc1nc2cc(-c3ccc(C(C)(C)O)nc3)cc(-c3ccccn3)c2s1 [Compound 27, 1-ethyl-3-[5-[6-(1-hydroxy-1-methyl-ethyl)-3-pyridyl]-7-(2-pyridyl)-1,3-benzothiazol-2-yl]urea]

solubility thermodynamic at 24 h (Thermodynamic solubility): ≥ 2000 µg/mL
Structure (SMILES): CCNC(=O)Nc1nc2cc(-c3cnc([C@H](C)OP(=O)(O)O)nc3)cc(-c3ccccn3)c2s1 [Compound 153, [(1S)-1-[5-[2-(ethylcarbamoylamino)-7-(2-pyridyl)-1,3-benzothiazol-5-yl]pyrimidin-2-yl]ethyl]dihydrogen phosphate]

AUC ([1]; dose 3 mg/kg): 1800 ng·h/mL
clearance ([1]; dose 3 mg/kg): 28 mL/min/kg
half-life ([1]; dose 3 mg/kg): 1 h
Structure (SMILES): CCNC(=O)Nc1nc2cc(-c3ccc(CO)nc3)cc(-c3ccccn3)c2s1 [Compound B, 1-Ethyl-3-[5-[6-(hydroxymethyl)-3-pyridyl]-7-(2-pyridyl)-1,3-benzothiazol-2-yl]urea, reference compound]

AUC ([1]; dose 3 mg/kg): 2000 ng·h/mL
clearance ([1]; dose 3 mg/kg): 25 mL/min/kg
half-life ([1]; dose 3 mg/kg): 1.35 h
Structure (SMILES): CCNC(=O)Nc1nc2cc(-c3cnc(CO)nc3)cc(-c3ccccn3)c2s1 [Compound A, 1-Ethyl-3-[5-[2-(hydroxymethyl)pyrimidin-5-yl]-7-(2-pyridyl)-1,3-benzothiazol-2-yl]urea, reference compound]

solubility thermodynamic at 24 h (Thermodynamic solubility): ≥ 2000 µg/mL
half-life at 10 μM (Microsomal stability): < 0.333 h
Structure (SMILES): CCNC(=O)Nc1nc2cc(-c3cnc(C(C)OC(=O)CCC(=O)O)nc3)cc(-c3ccccn3)c2s1 (stereo not shown) [Compound 19, 4-[1-[5-[2-(ethylcarbamoylamino)-7-(2-pyridyl)-1,3-benzothiazol-5-yl]pyrimidin-2-yl]ethoxy]-4-oxo-butanoic acid]
